From patent US7462347B2, “Fluorescent membrane intercalating probes” (priority 2000, dated 2008)

Columns and labels:
[1] = tested on: YAC-1 murine lymphoma cells; test: Probe effects on cell viability and cell growth (Maximum Tolerated Concentration); assay type: cell-based; settings: for Growth Inhibition / Cytotoxicity: at MTC; for Growth Inhibition: 22-24 hours culture, versus diluent alone; for Cytotoxicity: trypan blue exclusion immediately post-staining (T = 0)
Procedure: YAC-1 murine lymphoma cells were stained at a concentrations of 10^7 cells/ml with increasing concentrations of probe by rapidly admixing 2× cells suspended in Diluent C with 2× probe in Diluent C. After 5 minutes at room temperature, the staining was stopped by the addition of cell culture medium. Cells were then washed thoroughly (RPI1640+10.0% FBS) and cultured under standard conditions for 22-24 hours. Cell numbers were compared to those in a control culture treated with diluent alone.
Maximum Tolerated Concentration (MTC) of probe was defined as the highest concentration of probe at which (1) viability by trypan blue exclusion immediately post-staining was>90% and (2) YAC cell growth after 24 hours was no more than 10% different than growth of cells in diluent alone.

[2] = Absorbance/emission spectra in ethanol; assay type: physicochemical; parameters: key to Excitation Max / Emission Max: wavelength in nm; settings: for Absorbance Max / Emission Max / Excitation Max: solutions in ethanol
Procedure: Referring now to Table 1 there are shown representations of the absorbance and emission properties of some example compounds of the present invention. Absorption and Fluorescence spectra were […] using 0.25 μM solutions in ethanol on a Jasco, Inc. UV-530 UV/VIS spectrophotometer and FP 750 spectrofluorometer, respectively. Approximate extinction coefficients were estimated from the absorbance scans by dividing the maximum absorbance by the nominal concentration ([…]).

[3] = Solubility of FR/NIR probes in ethanol, water and Diluent C; assay type: physicochemical
Procedure: Effects of the various combinations of asymmetrical and symmetrical alkyl chains and methene bridges on the solubility of the compounds of the present invention were examined. Compounds 8, 25, 13, 15 and 26 were all soluble in ethanol at concentrations≧1 mM. The more lipophilic probes 15 and 26, however, required sonication for a few minutes to achieve dissolution at 1 mM in ethanol. All example probes-were poorly soluble in water. Triplicate 1:50 dilutions of stock 1 mM probe solutions were made in either ethanol or test diluent. After 30 minutes at room temperature solutions were centrifuged at 10,000×g for 10 minutes to remove any microagregates and […] aliquots were transferred to 2.0 ml of ethanol for absorbance determinations. Based on the teachings of Leung et al. and on solubility specifications found on Sigma Certificates of Analysis for the commercial diluents (diluent supernatant absorbance at 30 minutes at least 60% of ethanol supernatant absorbance after 30 minutes), a preliminary specification at least 60% of the ethanol control was set as a surrogate for solubility sufficient to achieve cell labeling with S/N ratios greater than 100 and to minimize potential problems with brightness or reproducibility of labeling. None of the probes was as soluble after 30 minutes in Diluent C as PKH26 (86%±4% of ethanol control).

| SMILES | Growth Inhibition [1] | Cytotoxicity [1] | Absorbance Max [2] | Emission Max [2] | Excitation Max [2] | solubility retained in Diluent C after 30 minutes ([3]; Diluent C, 30 minutes) | solubility after 30 minutes in Diluent C ([3]; 1:50 dilution of 1 mM stock, 30 minutes at room temperature) | maximum fluorescence ([2]; excitation light of about 635 nm) | emission maximum wavelength ([2]; excitation light of about 647 nm) | MTC (Maximum Tolerated Concentration) ([1]; YAC-1 cells, 5 minutes staining in Diluent C) | solubility retained in Diluent C after 30 minutes ([3]; 30 min, 20 µM) | solubility ([3]; organic solvent or mixture) |
| --- | --- | --- | --- | --- | --- | --- | --- | --- | --- | --- | --- | --- |
| CCCCCCCCCCCCCCCCCCCCCC[N+]1=C(/C=C/C=C/C=C/C=C2/N(CCCCCCCCCCCCCC)c3ccc4ccccc4c3C2(C)C)C(C)(C)c2c1ccc1ccccc21.[I-] [Compound 15] | <5% | <1% | 786 | 814 | 790 | approximately 65 % of solubility at T0 | – | – | – | – | – | – |
| CCCCCCCCCCCCCCCCCCCCCC[N+]1=C(/C=C/C=C2/N(CCCCCCCCCCCCCC)c3ccccc3C2(C)C)C(C)(C)c2ccccc21.[I-] [PKH26, reference compound] | <1% | <1% | – | – | – | – | 86%±4% | – | – | – | – | – |
| CCCCCCCCCCCCCCCCCCCCCC[N+]1=C(/C=C/C=C/C=C2/N(CCCCCCCCCCCCCC)c3ccccc3C2(C)C)C(C)(C)c2ccccc21.[I-] [Compound 8] | <1% | <1% | 626 | 667 | 647 | approximately 65 % of solubility at T0 | – | 667 nm | – | – | – | – |
| CCCCCCCCCCCCCCCCCCCCCC[N+]1=C(/C=C/C=C/C=C2/N(CCCCCCCCCCCCCC)c3ccc4ccccc4c3C2(C)C)C(C)(C)c2c1ccc1ccccc21.[I-] [Compound 13] | <1% | <1% | 684 | 713 | 680 | – | – | – | 713 nm | – | – | – |
| CCCCCCCCCCCCCCCCCCCCCC[N+]1=C(/C=C/C=C/C=C2/N(CCCCCCCCCCCCCC)c3ccc4ccccc4c3C2(C)C)C(C)(C)c2ccccc21 [Compound 25] | <4% | <1% | 666 | 682 | 667 | – | – | – | – | 10 µM | greater than 55 % of solubility at T0 | ≥ 1000 µM |
